Laboratory results: US8614206B2 (Genentech, Inc., priority 2011, dated 2013)
Where two headings read alike, the source gives them in different places.

Columns and labels:
PIM1 = PIM1 (Homo sapiens (Human), UniProt P11309); assay: Pim kinase inhibition, PIM1 LC3K (Example 901); assay type: biochemical
From the text: Determination of the Pim kinase activity of a Formula I compound is possible by a number of direct and indirect detection methods.

BaF3 parental cells = assay: In vitro cell proliferation, BaF3 parental line + IL3 (CellTiter-Glo); assay type: cell-based, murine; conditions: Mus musculus, BaF3, BaF3 parental cells with IL-3, incubated overnight
Method: (§1) BaF3 parental line was obtained from the DSMZ repository. BaF3 lines transfected with PIM 1 or PIM2 were generated. Mouse IL-3 was purchased from R&D Systems. G418 was purchased from Clontech. Media for BaF3 parental line contained RPMI, 10% FBS, 2 mM L-Glutamine, 2 ng/mL mIL-3. Media for BaF3 PIM1 & 2 lines contained RPMI, 10% FBS, 2 mM L-Glutamine, 250 μg/mL.
(§2) BaF3, a murine interleukin-3 dependent pro-B cell line, parental cells, BaF3 PIM1 cells, BaF3 PIM2 cells, and MM1.S (multiple myeloma) cells were seeded at 2 k/well, 5 k/well, 5 k/well, and 10 k/well respectively, in a 384-well plate, at 45 μL/well. Test compound was added at 5 μL/well. BaF3 cells (parental and transfected) were incubated overnight, while MM1.S cells were incubated for 72 hours at 37° C., 5% CO2. CELL TITER GLO® Reagent (Promega) was added at 50 μL/well, the plates were incubated for 30 minutes, and their luminescence read on an HT Analyst. IC50/EC50 values for the test compound were calculated.

[1] = tested on: MM1.S (multiple myeloma) cells; assay: In vitro cell proliferation, MM1.S multiple myeloma cells (CellTiter-Glo, ATP); assay type: cell-based; conditions: Homo sapiens, MM1.S, 72 h, read-out: Prolif MM1S ATP (EC50)
In short: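 BaF3 parental cells (medium with 2 ng/mL mIL-3) seeded at 2 k/well and MM1.S at 10 k/well, then exposed to test compound at 37° C, 5% CO2: BaF3 overnight, MM1.S for 72 hours. Viability read by CellTiter-Glo; IC50/EC50 values calculated.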

BaF3 PIM1 cells = assay: cells; conditions: Mus musculus
Method: as §1, §2

[2] = read-out: Prolif BaF3 + IL3 (IC50)
[3] = BaF3, read-out: Prolif BaF3_PIM1 (IC50), BaF3 PIM1 cells, incubated overnight
[4] = read-out: Prolif BaF3 IL3 (IC50)
[5] = BaF3, read-out: Prolif BaF3 PIM1 (IC50), BaF3 PIM1 cells, incubated overnight

Sequence of PIM1 (P11309 whole entry): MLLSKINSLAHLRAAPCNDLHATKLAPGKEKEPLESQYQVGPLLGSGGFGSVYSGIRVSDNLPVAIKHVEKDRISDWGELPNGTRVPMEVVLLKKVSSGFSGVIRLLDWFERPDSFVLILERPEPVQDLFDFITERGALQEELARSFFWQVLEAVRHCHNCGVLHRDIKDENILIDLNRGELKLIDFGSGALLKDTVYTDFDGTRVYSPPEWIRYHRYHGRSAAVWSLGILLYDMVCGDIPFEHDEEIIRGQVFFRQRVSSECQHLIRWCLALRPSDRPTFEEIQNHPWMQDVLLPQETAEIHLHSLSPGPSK

| Compound | Ki (PIM1) | IC50 (BaF3 parental cells; [2]) | EC50 [1] | IC50 (BaF3 PIM1 cells; [3]) | IC50 (BaF3 parental cells; [4]) | IC50 (BaF3 PIM1 cells; [5]) |
| --- | --- | --- | --- | --- | --- | --- |
| Cc1c(-c2nc(C(=O)Nc3cnn(C)c3N3CCC(N)CC(F)(F)C3)c(N)s2)cnn1C (centres unmarked) [Example 460, 5-amino-N-[5-(5-amino-3,3-difluoro-azepan-1-yl)-1-methyl-pyrazol-4-yl]-2-(1,5-dimethylpyrazol-4-yl)thiazole-4-carboxamide] | 0.026 nM | > 25000 nM | 215 nM | 36.4 nM | – | – |
| Cn1ncc(NC(=O)c2nc(-c3ccccn3)sc2N)c1N1CCNCC(F)(F)C1 [Example 223, 5-amino-N-(5-(6,6-difluoro-1,4-diazepan-1-yl)-1-methyl-1H-pyrazol-4-yl)-2-(pyridin-2-yl)thiazole-4-carboxamide] | 0.206 nM | – | 20200 nM | – | 12500 nM | 547 nM |
| Cn1ncc(NC(=O)c2nc(-c3ccccc3F)sc2N)c1N1CCCC(C)(N)CC1 (centres unmarked) [Example 433, 5-amino-N-[5-(4-amino-4-methyl-azepan-1-yl)-1-methyl-pyrazol-4-yl]-2-(2-fluorophenyl)thiazole-4-carboxamide] | 0.024 nM | 11100 nM | – | 1300 nM | – | – |
| Cc1c(-c2nc(C(=O)Nc3cnn(C)c3N3CC[C@@H](N)[C@H](F)CC3)c(N)s2)cnn1C [Example 429, 5-amino-N-[5-[(4R,5R)-4-amino-5-fluoro-azepan-1-yl]-1-methyl-pyrazol-4-yl]-2-(1,5-dimethylpyrazol-4-yl)thiazole-4-carboxamide] | 0.315 nM | > 25000 nM | – | 5300 nM | – | – |
| Cn1ncc(NC(=O)c2nc(-c3c(F)cccc3F)sc2N)c1N1CC[C@@H]2NC(=O)O[C@@H]2CC1 [Example 488, N-[5-[(3aS,8aR)-2-oxo-3a,4,5,7,8,8a-hexahydro-3H-oxazolo[4,5-d]azepin-6-yl]-1-methyl-pyrazol-4-yl]-5-amino-2-(2,6-difluorophenyl)thiazole-4-carboxamide] | 0.353 nM | 5400 nM | – | 2000 nM | – | – |
| Cn1ncc(NC(=O)c2nc(-c3ccncc3F)sc2N)c1N1CCC(N)CC(F)(F)C1 (racemic) [Example 426, 5-amino-N-[5-(5-amino-3,3-difluoro-azepan-1-yl)-1-methyl-pyrazol-4-yl]-2-(3-fluoro-4-pyridyl)thiazole-4-carboxamide] | 0.034 nM | 24800 nM | – | 25.1 nM | – | – |
| [2H]C([2H])([2H])n1ncc(NC(=O)c2nc(-c3c(F)cccc3F)sc2N)c1N1CC[C@H](N)CC(F)(F)C1 [Example 493, 5-amino-N-[5-[(5S)-5-amino-3,3-difluoro-azepan-1-yl]-1-(trideuteriomethyl)pyrazol-4-yl]-2-(2,6-difluorophenyl)thiazole-4-carboxamide] | – | 7800 nM | 3000 nM | 17.7 nM | – | – |
| Cn1ncc(NC(=O)c2nc(-c3c(F)cccc3F)sc2N)c1N1CCC(N)CC(F)(F)C1 (centres unmarked) [Example 121, 5-Amino-N-(5-(5-amino-3,3-difluoroazepan-1-yl)-1-methyl-1H-pyrazol-4-yl)-2-(2,6-difluorophenyl)thiazole-4-carboxamide] | – | – | 50.2 nM | – | 4800 nM | 21 nM |
| Cn1ncc(NC(=O)c2nc(-c3c(F)ccc(I)c3F)sc2N)c1N1CC[C@H](N)CC(F)(F)C1 [Example 347, 5-amino-N-[5-[(5S)-5-amino-3,3-difluoro-azepan-1-yl]-1-methyl-pyrazol-4-yl]-2-(2,6-difluoro-3-iodo-phenyl)thiazole-4-carboxamide] | 0.002 nM | 2400 nM | – | 69.2 nM | – | – |
| Cc1ccncc1-c1nc(C(=O)Nc2cnn(C)c2N2CC[C@@H](N)[C@H](F)CC2)c(N)s1 [Example 428, 5-amino-N-[5-[(4R,5R)-4-amino-5-fluoro-azepan-1-yl]-1-methyl-pyrazol-4-yl]-2-(4-methyl-3-pyridyl)thiazole-4-carboxamide] | 0.884 nM | > 25000 nM | – | 6600 nM | – | – |
| Cn1ncc(NC(=O)c2nc(-c3c(F)ccc(I)c3F)sc2N)c1N1CC[C@@H](N)CC(F)(F)C1 [Example 346, 5-amino-N-[5-[(5R)-5-amino-3,3-difluoro-azepan-1-yl]-1-methyl-pyrazol-4-yl]-2-(2,6-difluoro-3-iodo-phenyl)thiazole-4-carboxamide] | 0.002 nM | 1200 nM | – | 1500 nM | – | – |
| Cn1ncc(NC(=O)c2nc(-c3c(F)cccc3F)sc2N)c1N1CC[C@H](N)CC(F)(F)C1 [Example 166, (S)-5-amino-N-(5-(5-amino-3,3-difluoroazepan-1-yl)-1-methyl-1H-pyrazol-4-yl)-2-(2,6-difluorophenyl)thiazole-4-carboxamide] | – | – | 22.9 nM | – | 13400 nM | 16.5 nM |
| Cn1ncc(NC(=O)c2nc(-c3c(F)cccc3F)sc2N)c1N1CC[C@@H](N)CC(F)(F)C1 [Example 167, (R)-5-amino-N-(5-(5-amino-3,3-difluoroazepan-1-yl)-1-methyl-1H-pyrazol-4-yl)-2-(2,6-difluorophenyl)thiazole-4-carboxamide] | – | – | 1400 nM | – | > 25000 nM | 48.4 nM |
| Cn1ncc(NC(=O)c2nc(-c3ccccc3F)sc2N)c1N1CCCC(C)(N)CC1 (single isomer, unassigned) [Example 434, 5-amino-N-[5-(4-amino-4-methyl-azepan-1-yl)-1-methyl-pyrazol-4-yl]-2-(2-fluorophenyl)thiazole-4-carboxamide] | 0.093 nM | 15500 nM | – | 1000 nM | – | – |
| Cc1cnc(F)c(-c2nc(C(=O)Nc3cnn(C)c3N3CCC[C@H](N)CC3)c(N)s2)c1 [Example 425, 5-amino-N-[5-[(4S)-4-aminoazepan-1-yl]-1-methyl-pyrazol-4-yl]-2-(2-fluoro-5-methyl-3-pyridyl)thiazole-4-carboxamide] | 0.144 nM | > 25000 nM | – | 2500 nM | – | – |
| Cn1ncc(NC(=O)c2nc(-c3cccc(C#N)n3)sc2N)c1N1CC[C@@H](N)[C@H](F)CC1 [Example 432, 5-amino-N-[5-[(4R,5R)-4-amino-5-fluoro-azepan-1-yl]-1-methyl-pyrazol-4-yl]-2-(6-cyano-2-pyridyl)thiazole-4-carboxamide] | 1.44 nM | 6300 nM | – | 5800 nM | – | – |
| Cn1ncc(NC(=O)c2nc(-c3c(F)cccc3F)sc2N)c1N1CC[C@@H]2OC(=O)N[C@@H]2CC1 [Example 486, N-[5-[(3aR,8aS)-2-oxo-3a,4,5,7,8,8a-hexahydro-3H-oxazolo[4,5-d]azepin-6-yl]-1-methyl-pyrazol-4-yl]-5-amino-2-(2,6-difluorophenyl)thiazole-4-carboxamide] | 0.058 nM | 11200 nM | – | 2300 nM | – | – |
| CCn1ncc(NC(=O)c2nc(-c3c(F)cccc3F)sc2N)c1N1CC[C@H](N)[C@@H](F)CC1 [Example 348, 5-amino-N-(5-((4S,5S)-4-amino-5-fluoroazepan-1-yl)-1-ethyl-1H-pyrazol-4-yl)-2-(2,6-difluorophenyl)thiazole-4-carboxamide] | 0.109 nM | 11200 nM | – | 825 nM | – | – |
| [2H]C([2H])([2H])n1ncc(NC(=O)c2nc(-c3c(F)cccc3F)sc2N)c1N1CC[C@@H](N)CC(F)(F)C1 [Example 494, 5-amino-N-[5-[(5R)-5-amino-3,3-difluoro-azepan-1-yl]-1-(trideuteriomethyl)pyrazol-4-yl]-2-(2,6-difluorophenyl)thiazole-4-carboxamide] | – | 8900 nM | 54.6 nM | 13.4 nM | – | – |
